Results reported in publication PMC3087488 (Journal of Oncology, 2011).

Test: adverse events in patients (CTCAE version 3.0)
Format: in vivo, human
Conditions: for Any motesanib-related AE, Grade 3 / Any motesanib-related AE, Grade 4 / Any motesanib-related AE, Grade 5 / Motesanib-related AE: Anorexia / Motesanib-related AE: Constipation / Motesanib-related AE: Deep vein thrombosis / Motesanib-related AE: Dehydration / Motesanib-related AE: Dermatitis acneiform / Motesanib-related AE: Diarrhea / Motesanib-related AE: Erythema / Motesanib-related AE: Fatigue / Motesanib-related AE: Hypertension / Motesanib-related AE: Nausea / Motesanib-related AE: Pulmonary embolism / Motesanib-related AE: Rash / Motesanib-related AE: Vomiting / Motesanib-related Arterial thromboembolic events (all grades) / Motesanib-related Arterial thrombosis, Grade 3 / Motesanib-related Arterial thrombosis, Grade 4 / Motesanib-related Cerebrovascular accident, Grade 2 / Motesanib-related Deep vein thrombosis, Grade 2 / Motesanib-related Deep vein thrombosis, Grade 3 / Motesanib-related Gallbladder disorder, Grade 1 / Motesanib-related Hemorrhagic events, Grade 1 / Motesanib-related Jugular vein thrombosis, Grade 2 / Motesanib-related Neutropenia, Grade 3 / Motesanib-related Pulmonary embolism, Grade 4 / Motesanib-related Pulmonary embolism, Grade 5 / Motesanib-related Venous thromboembolic events (all grades) / Patients with any motesanib-related AE: gemcitabine/cisplatin
Protocol: Adverse events were recorded throughout the study and graded (including DLTs) according to the Common Terminology Criteria for Adverse Events, version 3.0. Samples for assessment of hematology, blood chemistry, urinalysis, and thyroid function were collected on day 1 of each cycle.

[1] = 33 patients who received motesanib, all cohorts
[2] = listed after the 125-mg QD cohort
[3] = motesanib 50 mg QD (n = 8) + panitumumab
[4] = motesanib 75 mg BID (n = 2) + panitumumab
[5] = motesanib 75 mg QD (n = 6) + panitumumab

## CC1(C)CNc2cc(NC(=O)c3cccnc3NCc3ccncc3)ccc21 [motesanib]
100 mg QD cohort
  grade 3 cholelithiasis: One
125 mg QD cohort
  grade 1 jaundice: one
[1]
  motesanib-related anorexia: 8 patients
  motesanib-related diarrhea: 10 patients
  motesanib-related fatigue: 14 patients
  motesanib-related hypertension: 15 patients
  motesanib-related nausea: 15 patients
  motesanib-related pulmonary embolism: 8 patients
  motesanib-related vomiting: 8 patients
125-mg QD cohort
  patients with serious motesanib-related adverse events: 8 patients
All cohorts
  hypothyroidism: did not occur
  patients who discontinued motesanib because of adverse events: 13 patients
All cohorts, 10 patients
  patients with motesanib-related venous thromboembolic events: 24%
All cohorts, eight patients (one grade 5)
  patients with grade 4 or 5 pulmonary embolism: 20%
All cohorts, four patients
  patients with deep vein thrombosis (grade 2 or 3): 10%
All cohorts, fourteen patients
  patients with serious adverse events considered related to motesanib: 34%
All cohorts, one patient
  patients with grade 2 jugular vein thrombosis: 2%
All cohorts, six patients
  patients with motesanib-related serious adverse event with a worst grade of 4: 15%
All cohorts, three patients
  patients with motesanib-related arterial thromboembolic events: 7%
Any tested dose level
  cholecystitis: did not occur
[2]
  serious motesanib-related arterial thrombosis: 1 patients
  serious motesanib-related asthenia: 1 patients
  serious motesanib-related atrial fibrillation: 1 patients
  serious motesanib-related confusional state: 1 patients
  serious motesanib-related deep vein thrombosis: 2 patients
  serious motesanib-related dehydration: 2 patients
  serious motesanib-related diarrhea: 2 patients
  serious motesanib-related headache: 1 patients
  serious motesanib-related hyponatremia: 1 patients
  serious motesanib-related pulmonary embolism: 3 patients
  serious motesanib-related sudden death: 1 patients
[3]
  Any motesanib-related AE, Grade 3: 2 (25) n (%)
  Any motesanib-related AE, Grade 4: 0 (0) n (%)
  Any motesanib-related AE, Grade 5: 1 (13) n (%)
  Motesanib-related AE: Anorexia: 2 (25) n (%)
  Motesanib-related AE: Constipation: 0 (0) n (%)
  Motesanib-related AE: Deep vein thrombosis: 1 (13) n (%)
  Motesanib-related AE: Dehydration: 0 (0) n (%)
  Motesanib-related AE: Dermatitis acneiform: 1 (13) n (%)
  Motesanib-related AE: Diarrhea: 1 (13) n (%)
  Motesanib-related AE: Erythema: 1 (13) n (%)
  Motesanib-related AE: Fatigue: 4 (50) n (%)
  Motesanib-related AE: Hypertension: 3 (38) n (%)
  Motesanib-related AE: Nausea: 4 (50) n (%)
  Motesanib-related AE: Pulmonary embolism: 1 (13) n (%)
  Motesanib-related AE: Rash: 0 (0) n (%)
  Motesanib-related AE: Vomiting: 2 (25) n (%)
  Motesanib-related Arterial thromboembolic events (all grades): 1 (13) n (%)
  Motesanib-related Arterial thrombosis, Grade 3: 0 (0) n (%)
  Motesanib-related Arterial thrombosis, Grade 4: 0 (0) n (%)
  Motesanib-related Cerebrovascular accident, Grade 2: 1 (13) n (%)
  Motesanib-related Deep vein thrombosis, Grade 2: 1 (13) n (%)
  Motesanib-related Deep vein thrombosis, Grade 3: 0 (0) n (%)
  Motesanib-related Gallbladder disorder, Grade 1: 0 (0) n (%)
  Motesanib-related Hemorrhagic events, Grade 1: 1 (13) n (%)
  Motesanib-related Jugular vein thrombosis, Grade 2: 0 (0) n (%)
  Motesanib-related Neutropenia, Grade 3: 1 (13) n (%)
  Motesanib-related Pulmonary embolism, Grade 4: 0 (0) n (%)
  Motesanib-related Pulmonary embolism, Grade 5: 1 (13) n (%)
  Motesanib-related Venous thromboembolic events (all grades): 2 (25) n (%)
  Patients with any motesanib-related AE: 6 (75) n (%)
[4]
  Any motesanib-related AE, Grade 3: 1 (50) n (%)
  Any motesanib-related AE, Grade 4: 1 (50) n (%)
  Any motesanib-related AE, Grade 5: 0 (0) n (%)
  Motesanib-related AE: Anorexia: 0 (0) n (%)
  Motesanib-related AE: Constipation: 0 (0) n (%)
  Motesanib-related AE: Deep vein thrombosis: 0 (0) n (%)
  Motesanib-related AE: Dehydration: 0 (0) n (%)
  Motesanib-related AE: Dermatitis acneiform: 0 (0) n (%)
  Motesanib-related AE: Diarrhea: 1 (50) n (%)
  Motesanib-related AE: Erythema: 0 (0) n (%)
  Motesanib-related AE: Fatigue: 0 (0) n (%)
  Motesanib-related AE: Hypertension: 1 (50) n (%)
  Motesanib-related AE: Nausea: 0 (0) n (%)
  Motesanib-related AE: Pulmonary embolism: 0 (0) n (%)
  Motesanib-related AE: Rash: 2 (100) n (%)
  Motesanib-related AE: Vomiting: 0 (0) n (%)
  Motesanib-related Arterial thromboembolic events (all grades): 1 (50) n (%)
  Motesanib-related Arterial thrombosis, Grade 3: 0 (0) n (%)
  Motesanib-related Arterial thrombosis, Grade 4: 1 (50) n (%)
  Motesanib-related Cerebrovascular accident, Grade 2: 0 (0) n (%)
  Motesanib-related Deep vein thrombosis, Grade 2: 0 (0) n (%)
  Motesanib-related Deep vein thrombosis, Grade 3: 0 (0) n (%)
  Motesanib-related Gallbladder disorder, Grade 1: 0 (0) n (%)
  Motesanib-related Hemorrhagic events, Grade 1: 0 (0) n (%)
  Motesanib-related Jugular vein thrombosis, Grade 2: 0 (0) n (%)
  Motesanib-related Neutropenia, Grade 3: 0 (0) n (%)
  Motesanib-related Pulmonary embolism, Grade 4: 0 (0) n (%)
  Motesanib-related Pulmonary embolism, Grade 5: 0 (0) n (%)
  Motesanib-related Venous thromboembolic events (all grades): 0 (0) n (%)
  Patients with any motesanib-related AE: 2 (100) n (%)
[5]
  Any motesanib-related AE, Grade 3: 2 (33) n (%)
  Any motesanib-related AE, Grade 4: 2 (33) n (%)
